This note sets out measurements from patent US20220033426A1, “Transition Metal Macrocyclics as MRI Contrast Agents for Molecular Imaging” (YALE UNIVERSITY, priority 2020, published 2022).

The nature of data set [1]: Temperature sensitivity of 1H NMR proton chemical shift (BIRDS), variable temperature. It counts as physicochemical. The note with it: At 11.7 T and a temperature range of 25-42° C. An excerpt:
(§1) For paramagnetic complexes, the total chemical shift of the nuclear spin (δO) is dependent on the cumulative effects of diamagnetic (δD) and paramagnetic (δP) terms, where δP is typically much larger than δD, which has also a very weak temperature dependence. Thus, the effect of temperature on the chemical shift is dominated by δP. Similarly, protonation of an exchangeable group from the complex can modify its geometry and alter its chemical shifts, thus providing pH sensing capability. Variation of the total shift term, ΔδO, when temperature changes by ΔT and pH changes by ΔpH, can be modeled as
(§2) where CT=(ΔδO/ΔT)pH,[X] is the temperature sensitivity, CpH=(ΔδO/Δ pH)T,[X] is the pH sensitivity, and CX represents the sensitivity to cation X concentration (see Coman, D. et al., “Brain temperature by Biosensor Imaging of Redundant Deviation in Shifts (BIRDS): comparison between TmDOTP5^− and TmDOTMA^−,” NMR in Biomedicine, 2010, 23(3):277-285 for details). pH or temperature sensing with BIRDS depends on CT and CpH in relation to ΔδO (>>10^1 ppm) and is inherently independent of agent concentration and static magnetic field (BO) (Coman, D. et al., “Brain temperature and pH measured by 1H chemical shift imaging of a thulium agent,” NMR in Biomedicine, 2009, 22(2):229-239).
(§3) Since the ^1H NMR chemical shifts of the —NH peaks in the [XDOTA-4AmC]^2− and [XDOTA-4AmP]^6− complexes are temperature and pH-dependent (FIG. 6 and FIG. 7), they can be used for measurements of temperature and pH using BIRDS (Table 1). […] In the [XDOTMA]^2− set of complexes, it was observed that the —CH3 proton resonance has a higher intensity compared to other nonexchangeable proton peaks, like H2 or H3 (FIG. 2). The 3D surface plots in FIGS. 10A-C represent the temperature and pH dependencies of the —CH3 proton resonance of the [XDOTMA]^2− complex.

Data set [2] in a line: pH sensitivity of 1H NMR proton chemical shift (BIRDS), variable pH. The note with it: At 11.7 T and a pH range of 6.5-8.0. The format is physicochemical.
Source text: as §1, §2, §3

Take `O=C([O-])CNC(=O)CN1CCN(CC(=O)NCC(=O)[O-])CCN(CC(=O)NCC(=O)[O-])CCN(CC(=O)NCC(=O)[O-])CC1.[Fe+2]` [[Fe(ii)DOTA-4AmC]^2−]: the “Temperature Sensitivity, —NH proton resonance” value in data set [1] worked out at 0.16 ± 0.01 ppm/° C. In data set [2], the “pH Sensitivity, —NH proton resonance” value turned out to be 0.04 ± 0.02 ppm/pH unit.
As to `O=C([O-])CNC(=O)CN1CCN(CC(=O)NCC(=O)[O-])CCN(CC(=O)NCC(=O)[O-])CCN(CC(=O)NCC(=O)[O-])CC1.[Ni+2]` [[Ni(ii)DOTA-4AmC]^2−], the “Temperature Sensitivity, —NH proton resonance” value in data set [1] stood at 0.14 ± 0.02 ppm/° C. Also, the “pH Sensitivity, —NH proton resonance” value in data set [2] is 1.07 ± 0.12 ppm/pH unit.
The like results for `O=C(CN1CCN(CC(=O)NCP(=O)([O-])[O-])CCN(CC(=O)NCP(=O)([O-])[O-])CCN(CC(=O)NCP(=O)([O-])[O-])CC1)NCP(=O)([O-])[O-].[Co+2]` [[Co(ii)DOTA-4AmP]^6−] were, in that order, 0.14 ± 0.01 ppm/° C and 0.37 ± 0.08 ppm/pH unit.
